Like-named read-outs stand apart in the source and are kept apart here.
What was measured:
Format in all cases: biochemical
human KDR enzyme = target: T1, human KDR enzyme (Homo sapiens, UniProt P35968); assay: KDR substrate (PLCγ) phosphorylation, scintillation assay; conditions: read-out: KDR % inhib at 10 μM
T1 construct: The cytoplasmic domain of the human KDR enzyme; GST; made in house; host or cells: SF21 insect cells (baculovirus)
Summary of the method: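 GST-fused human KDR cytoplasmic domain from SF21 cells (about 60% pure, 100 ng) phosphorylated 2 μg of GST-PLCγ SH2-SH3 fragment. The trigger solution held γ33P-ATP with 2 μM cold ATP, in MOPS buffer pH 7.2 with Mg2+, Mn2+, vanadate and NaF. Reactions ran 1 h at 37 °C, were stopped with EDTA and counted by scintillation; results are % inhibition versus the no-compound control.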

human FAK = target: T2, human FAK (Homo sapiens, UniProt Q05397); assay: FAK autophosphorylation inhibition, time resolved fluorescence (HTRF) assay; conditions: 10 μM (values without asterisk); read-out: FAK % inhib at 10 μM
T2 construct: The complete cDNA of human FAK; made in house; host or cells: baculovirus expression system (vector pFastBac HTc)
T2 sequence (Q05397 whole entry): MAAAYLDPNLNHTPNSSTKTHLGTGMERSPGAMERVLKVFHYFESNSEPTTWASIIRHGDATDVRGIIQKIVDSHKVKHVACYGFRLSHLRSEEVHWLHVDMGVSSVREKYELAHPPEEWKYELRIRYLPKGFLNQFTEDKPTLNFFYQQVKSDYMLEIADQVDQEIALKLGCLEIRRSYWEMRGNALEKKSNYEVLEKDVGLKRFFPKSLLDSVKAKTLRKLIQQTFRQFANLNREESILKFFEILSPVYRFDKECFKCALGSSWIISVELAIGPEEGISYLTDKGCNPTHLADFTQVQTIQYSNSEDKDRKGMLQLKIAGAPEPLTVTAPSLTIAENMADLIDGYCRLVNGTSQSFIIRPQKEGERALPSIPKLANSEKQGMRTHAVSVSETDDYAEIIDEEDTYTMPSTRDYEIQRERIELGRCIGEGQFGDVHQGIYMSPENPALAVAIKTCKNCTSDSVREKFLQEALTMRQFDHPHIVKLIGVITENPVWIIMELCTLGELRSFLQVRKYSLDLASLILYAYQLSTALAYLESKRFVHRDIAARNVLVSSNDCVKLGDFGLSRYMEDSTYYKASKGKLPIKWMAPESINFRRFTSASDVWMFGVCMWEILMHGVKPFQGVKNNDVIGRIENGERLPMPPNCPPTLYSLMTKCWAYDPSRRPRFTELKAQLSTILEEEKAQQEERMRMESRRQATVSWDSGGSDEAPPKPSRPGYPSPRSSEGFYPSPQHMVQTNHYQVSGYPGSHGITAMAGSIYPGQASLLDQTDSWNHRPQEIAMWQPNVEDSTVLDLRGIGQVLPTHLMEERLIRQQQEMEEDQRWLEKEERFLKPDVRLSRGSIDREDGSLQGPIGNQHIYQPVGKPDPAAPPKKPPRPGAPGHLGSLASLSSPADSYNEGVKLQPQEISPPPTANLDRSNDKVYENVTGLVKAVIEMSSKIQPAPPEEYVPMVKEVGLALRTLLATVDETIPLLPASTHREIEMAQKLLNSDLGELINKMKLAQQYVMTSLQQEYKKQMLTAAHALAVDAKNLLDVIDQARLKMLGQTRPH
Summary of the method: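 His-tagged full-length human FAK from baculovirus (6.6 µg/ml) self-phosphorylates with 15 µM ATP in HEPES pH 7.2, MgCl2, vanadate, 1 h at 37 °C. HTRF detection (Eu-anti-phosphotyrosine / XL665-anti-His), 665/620 nm ratio; % inhibition vs untreated control, duplicate mean.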

[1] = target: T3, human IGF1R cytoplasmic domain (Homo sapiens, UniProt P08069); assay: IGF1R autophosphorylation inhibition, time resolved fluorescence (HTRF) assay; conditions: read-out: IGF1R % inhib at 10 μM
T3 construct: The human IGF1R cytoplasmic domain was cloned; made in house; host or cells: SF21 insect cells (baculovirus)
T3 sequence (P08069 960-1367 limits assumed): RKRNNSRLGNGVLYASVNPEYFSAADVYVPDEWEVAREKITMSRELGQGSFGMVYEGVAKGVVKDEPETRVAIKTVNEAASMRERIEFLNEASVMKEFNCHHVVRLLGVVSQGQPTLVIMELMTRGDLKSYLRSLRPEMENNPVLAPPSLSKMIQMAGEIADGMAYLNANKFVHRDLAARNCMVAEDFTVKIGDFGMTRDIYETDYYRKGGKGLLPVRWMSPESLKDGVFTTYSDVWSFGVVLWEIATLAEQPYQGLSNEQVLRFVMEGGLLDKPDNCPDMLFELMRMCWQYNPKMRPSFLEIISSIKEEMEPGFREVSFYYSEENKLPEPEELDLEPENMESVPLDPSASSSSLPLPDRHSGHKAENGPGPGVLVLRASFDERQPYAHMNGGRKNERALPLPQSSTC
Method: The inhibitory activity of the compounds on IGF1R is determined by measuring the inhibition of the autophosphorylation of the enzyme using a time resolved fluorescence (HTRF) assay.
The human IGF1R cytoplasmic domain was cloned, as a fusion with glutathione S-transferase (GST), into the baculovirus expression vector pFastBac-GST. The protein was expressed in SF21 cells and purified to approximately 80% homogeneity.
The kinase activity was determined by incubating the enzyme with various concentrations of test compound in a 50 mM Hepes buffer, pH 7.5, containing 5 mM MnCl2, 50 mM NaCl, 3% glycerol, 0.025% Tween […] of ATP. The enzyme reaction is stopped by adding 100 mM Hepes buffer, pH 7.0, containing 0.4 M KF, 133 mM EDTA and 0.1% BSA containing an anti-GST antibody labeled with XL665 and an antiphosphotyrosine antibody conjugated to europium cryptate (Eu-K). The characteristics of the two fluorophores, XL-665 and Eu-K, are available in G. Mathis et al., Anticancer Research, 1997, 17, pages 3011-3014. The transfer of energy from the excited europium cryptate to the acceptor XL665 is proportional to the degree of autophosphorylation of IGF1R. The long-lived signal specific for XL-665 is measured in a Victor analyzer plate counter (Perkin-elmer). The inhibition of the IGF1R autophosphorylation activity with compounds of the invention is expressed as percentage inhibition compared to a control whose activity is measured in the absence of test compound.

Aurora2 kinase = target: T4, Aurora2 kinase (Homo sapiens, UniProt O14965); assay: Aurora2 kinase radioactivity scintillation assay using nickel chelate (NuMA substrate); conditions: read-out: Aurora2 % inhib at 10 μM
T4 construct: A complete recombinant Aurora2 enzyme; His tag (N); made in house; host or cells: E. coli
T4 sequence (O14965 1-403): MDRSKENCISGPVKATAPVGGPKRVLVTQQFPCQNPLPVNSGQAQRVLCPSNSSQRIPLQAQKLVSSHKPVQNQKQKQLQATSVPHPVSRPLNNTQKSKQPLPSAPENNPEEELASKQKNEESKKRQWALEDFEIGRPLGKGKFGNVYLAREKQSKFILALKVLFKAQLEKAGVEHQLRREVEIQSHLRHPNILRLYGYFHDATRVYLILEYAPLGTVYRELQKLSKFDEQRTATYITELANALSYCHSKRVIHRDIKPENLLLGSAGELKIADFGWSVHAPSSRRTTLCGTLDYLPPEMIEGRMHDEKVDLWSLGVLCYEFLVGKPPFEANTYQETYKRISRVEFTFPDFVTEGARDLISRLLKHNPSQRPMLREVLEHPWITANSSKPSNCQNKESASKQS
Summary of the method: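 His-tagged full-length Aurora2 (0.02 μM, E. coli) phosphorylating His-tagged NuMA C-terminal fragment (0.5 μM) with 1 μM ATP plus [33P]-ATP, 30 min at 37 °C, pH 7.5 Tris buffer with MgCl2. Nickel-chelate scintillation read; percent inhibition versus no-compound control.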

T1 sequence (P35968 786-1356 limits assumed): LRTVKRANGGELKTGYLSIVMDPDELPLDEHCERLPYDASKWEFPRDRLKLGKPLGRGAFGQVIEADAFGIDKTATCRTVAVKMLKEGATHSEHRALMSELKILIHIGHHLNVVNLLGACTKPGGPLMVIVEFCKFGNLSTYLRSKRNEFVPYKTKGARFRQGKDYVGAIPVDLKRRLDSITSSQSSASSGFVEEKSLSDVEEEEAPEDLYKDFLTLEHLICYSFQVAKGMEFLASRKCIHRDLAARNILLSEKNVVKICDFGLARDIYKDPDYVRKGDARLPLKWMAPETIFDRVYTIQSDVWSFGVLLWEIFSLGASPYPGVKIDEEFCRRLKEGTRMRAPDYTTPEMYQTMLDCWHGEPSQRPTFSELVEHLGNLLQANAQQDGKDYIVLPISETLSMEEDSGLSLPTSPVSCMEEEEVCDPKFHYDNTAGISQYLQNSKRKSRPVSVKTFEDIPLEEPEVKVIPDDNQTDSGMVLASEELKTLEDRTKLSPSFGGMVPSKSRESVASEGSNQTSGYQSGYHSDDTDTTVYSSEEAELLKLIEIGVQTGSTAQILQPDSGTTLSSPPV

| SMILES | inhibition at 10 µM (human KDR enzyme; 10 μM) | inhibition at 10 µM (human FAK) | inhibition at 10 µM ([1]; 10 μM) | inhibition at 10 µM (Aurora2 kinase; 10 μM) | inhibition at 10 µM (human KDR enzyme) | inhibition at 10 µM [1] | inhibition at 10 µM (Aurora2 kinase) |
| --- | --- | --- | --- | --- | --- | --- | --- |
| CS(=O)(=O)c1ccccc1S(=O)(=O)Nc1ccc2[nH]nc(/C=C/c3ccccc3)c2c1 [Example 78, 2-Methylsulfonyl-N-[3-((E)-styryl)-1H-indazol-5-yl]benzenesulfonamide] | 97% | 94% | 96% | 100% |  |  |  |
| O=S(=O)(Nc1ccc2[nH]nc(-c3cc4ccccc4[nH]3)c2c1)c1ccccc1 [Example 82, N-[3-(1H-Indol-2-yl)-1H-indazol-5-yl]benzenesulfonamide] | 100% | 93% | 100% | 100% |  |  |  |
| CS(=O)(=O)c1ccccc1S(=O)(=O)Nc1ccc2[nH]nc(Nc3ccccc3)c2c1 [Example 83, 2-Methylsulfonyl-N-(3-phenylamino-1H-indazol-5-yl)-benzenesulfonamide] | 60% | 92% | 100% | 93% |  |  |  |
| O=S(=O)(Nc1ccc2[nH]nc(-c3cc4ccccc4[nH]3)c2c1)c1cccc(F)c1 [Example 85, 3-Fluoro-N-[3-(1H-indol-2-yl)-1H-indazol-5-yl]benzenesulfonamide] | 99% | 95% | 99% | 100% |  |  |  |
| CN(C)c1c(F)c(F)c(S(=O)(=O)Nc2ccc3[nH]nc(-c4cc5ccccc5[nH]4)c3c2)c(F)c1F [Example 86, 4-Dimethylamino-2,3,5,6-tetrafluoro-N-[3-(1H-indol-2-yl)-1H-indazol-5-yl]benzenesulfonamide] | 85% | 40% | 53% | 86% |  |  |  |
| C[Si](C)(C)C#Cc1cccc(-c2n[nH]c3ccc(NS(=O)(=O)c4ccccc4S(C)(=O)=O)cc23)c1 [Example 91, 2-Methylsulfonyl-N-[3-(3-trimethylsilanylethynylphenyl)-1H-indazol-5-yl]benzenesulfonamide] |  | 95% |  |  | 35% | 7% | 11% |
| CS(=O)(=O)c1ccccc1S(=O)(=O)Nc1ccc2[nH]nc(-c3cc(C(F)(F)F)cc(C(F)(F)F)c3)c2c1 [Example 101, N-[3-(3,5-bistrifluoromethylphenyl)-1H-indazol-5-yl]-2-methylsulfonylbenzenesulfonamide] | 39% | 84% | 28% | 30% |  |  |  |
| CS(=O)(=O)c1ccccc1S(=O)(=O)Nc1ccc2[nH]nc(-c3cc(F)cc(F)c3)c2c1 [Example 102, N-[3-(3,5-difluorophenyl)-1H-indazol-5-yl]-2-methylsulfonylbenzenesulfonamide] | 77% | 90% | 74% | 96% |  |  |  |
| CSc1ccccc1-c1n[nH]c2ccc(NS(=O)(=O)c3ccccc3S(C)(=O)=O)cc12 [Example 103, 2-methylsulfonyl-N-[3-(2-methylsulfanylphenyl)-1H-indazol-5-yl]benzenesulfonamide] | 25% | 61% | 19% | 40% |  |  |  |
| CS(=O)(=O)c1ccccc1S(=O)(=O)Nc1ccc2[nH]nc(-c3ccc4[nH]ccc4c3)c2c1 [Example 104, N-[3-(1H-indol-5-yl)-1H-indazol-5-yl]-2-methylsulfonylbenzenesulfonamide] | 75% | 85% | 73% | 97% |  |  |  |
| Cc1ccccc1-c1n[nH]c2ccc(NS(=O)(=O)c3ccccc3S(C)(=O)=O)cc12 [Example 105, 2-Methylsulfonyl-N-(3-o-tolyl-1H-indazol-5-yl)benzenesulfonamide] | 28% | 71% | 25% | 49% |  |  |  |
| O=S(=O)(Nc1ccc2[nH]nc(-c3ccccc3)c2c1)c1cccc2ccccc12 [Example 106, N-(3-Phenyl-1H-indazol-5-yl)-naphthalene-1-sulfonamide] | 79% | 43% | 90% | 92% |  |  |  |
| CN(C)c1cccc2c(S(=O)(=O)Nc3ccc4[nH]nc(-c5ccccc5)c4c3)cccc12 [Example 107, 5-Dimethylamino-N-(3-phenyl-1H-indazol-5-yl)naphthalene-1-sulfonamide] | 51% | 10% | 84% | 43% |  |  |  |
| O=S(=O)(Nc1ccc2[nH]nc(-c3ccccc3)c2c1)c1ccc2ccccc2c1 [Example 108, N-(3-Phenyl-1H-indazol-5-yl)-naphthalene-2-sulfonamide] | 72% | 8% | 78% | 44% |  |  |  |
| O=S(=O)(Nc1ccc2[nH]nc(-c3ccccc3)c2c1)c1cccc2cccnc12 [Example 111, N-(3-Phenyl-1H-indazol-5-yl)quinoline-8-sulfonamide] | 83% | 66% | 99% | 100% |  |  |  |
| CC(C)c1cc(C(C)C)c(S(=O)(=O)Nc2ccc3[nH]nc(-c4ccccc4)c3c2)c(C(C)C)c1 [Example 114, 2,4,6-Triisopropyl-N-(3-phenyl-1H-indazol-5-yl)-benzenesulfonamide] | 90% | 48% | 50% | 98% |  |  |  |
| Cc1cc(C)c(S(=O)(=O)Nc2ccc3[nH]nc(-c4ccccc4)c3c2)c(C)c1 [Example 115, 2,4,6-Trimethyl-N-(3-phenyl-1H-indazol-5-yl)-benzenesulfonamide] | 78% | 31% | 79% | 70% |  |  |  |
| O=[N+]([O-])c1ccc(S(=O)(=O)Nc2ccc3[nH]nc(-c4ccccc4)c3c2)cc1 [Example 119, 4-Nitro-N-(3-phenyl-1H-indazol-5-yl)benzenesulfonamide] | 78% | 25% | 50% | 50% |  |  |  |
| CCCCS(=O)(=O)Nc1ccc2[nH]nc(-c3ccccc3)c2c1 [Example 129, N-(3-Phenyl-1H-indazol-5-yl)-butanesulfonamide] | 58% | 46% | 30% | 64% |  |  |  |
| O=C(NCc1ccc(S(=O)(=O)Nc2ccc3[nH]nc(-c4ccccc4)c3c2)s1)c1ccccc1 [Example 140, N-[5-(3-Phenyl-1H-indazol-5-ylsulfamoyl)thiophen-2-ylmethyl]benzamide] | 70% | 6% | 40% | 71% |  |  |  |
| O=S(=O)(Nc1ccc2[nH]nc(-c3ccccc3)c2c1)c1ccccc1OC(F)(F)F [Example 142, N-(3-Phenyl-1H-indazol-5-yl)-2-trifluoromethoxy-benzenesulfonamide] | 85% | 40% | 74% | 100% |  |  |  |

Source: patent US6858638B2, “Substituted indazoles, compositions containing them, method of production and use” (Aventis Pharma S.A., priority 2002, dated 2005)
